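Step 1: Grow cells in 96-well plates. Step 2: Expose to compound for 48 hours at 5 concentrations. Step 3: Interpolate endpoints linearly; if unreached, use highest concentration. GI50 = concentration required for 50% inhibition of growth. TGI denotes the concentration required for complete inhibition of growth.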 Some results are limits rather than exact numbers.

The first experiment deals with NCI-H23 lung. Briefly: growth of human tumour cells (NCI), 48 h.
In turn, `COc1cc2c(OC)cc1CSCc1sc(C)c(c1Br)CSC2` gave a TGI above 100 µM.
Same read-out and setting: the figure for `CC(C)N(C(=O)C12C3C4C1(I)C1C2C3(I)C41C(=O)N(C(C)C)C(C)C)C(C)C` (centres undefined) is above 100 µM; for `Cc1cccc(C)c1NC(=O)C(=O)C(C(=O)c1ccccc1-c1ccccc1)C1OC(=O)c2ccccc21` (centres undefined) it is 30 µM; for `CC1COC(C)(C)P(=O)(c2ccccc2)C1` (centres undefined) it is above 100 µM.
Still for that read-out and setting: the figure for `Cc1ccc(S(=O)(=O)c2ccc(N)cc2)cc1` is above 100 µM; for `CCOP(=O)(OCC)OC1C=CC2CCC1C2` (centres undefined) it is above 100 µM; for `COC(=O)[C@H]1C=C[C@@H](C)n2c(=O)c3cc4ccccc4cc3c(=O)n21` it is above 100 µM.
The same measure, in the same setting: the figure for `COc1cc(C=O)c(-c2cc(OC)c(OC)cc2C=O)cc1OC` is above 100 µM; for `N#CC(C(=O)C(=O)Nc1ccc(Cl)cc1)c1ccccc1` (centres undefined) it is above 100 µM.
Take `COc1cc(C(=O)N2CCN(c3ncccn3)CC2)c(N)cc1OCc1ccccc1`: the GI50 was above 100 µM and the TGI was above 100 µM.
In the case of `COc1c[c]([Hg][O]C(C)=O)c(OC)c(NC(=O)CC(C)=O)[c]1[Hg][O]C(C)=O`, the GI50 is 11.6 µM and the TGI was 17.9 µM.
As for `COC(=O)/C=C1\CCC(C)O1` (centres undefined), the TGI is above 100 µM.
On the same count and under the same terms, the figure for `CCCO/S(=N\S(=O)(=O)c1ccccc1)c1ccccc1[N+](=O)[O-]` (centres undefined) is above 100 µM; for `Cc1ccc(C)c(N=C2NC(=O)C(CC(=O)Nc3ccc(Cl)cc3Cl)S2)c1` (centres undefined) it is above 100 µM; for `C/C(CC(=O)Nc1cccc(Cl)c1C)=N\NC(=O)c1ccncc1` it is above 100 µM.
Same read-out and setting: with `Cc1cc(NS(=O)(=O)c2ccc(Nc3c4ccccc4nc4c(C(=O)N5CCN(CCO)CC5)ccc(Cl)c34)cc2)no1` the figure was above 100 µM.
In the case of `COc1ccc(-c2ccc(-c3ccc(C(=N)N)s3)s2)cc1`, the GI50 is 0.264 µM and the TGI turned out to be 0.66 µM.
As to `Cc1nc([N+](=O)[O-])cn1CC(=N)N`, the TGI is above 100 µM.
Still for that read-out and setting: with `COC(=O)/C=C/c1c(CC=C(C)C)ncn1C` the figure was above 100 µM; with `CC(C)C(=O)Nc1nc2c(ncn2C2OC(CO)C(O)C2O)c(=O)[nH]1` (centres undefined), above 100 µM; with `O=S(=O)(c1ccccc1)C1CN2OC1(S(=O)(=O)c1ccccc1)CC2c1ccc(Br)cc1` (centres undefined), above 100 µM.
The molecule `O=Cc1ccc2c(c1-c1c(C=O)ccc3c1OCO3)OCO2` returned a TGI above 100 µM.
Still for that read-out and setting: the figure for `CC(=O)O[C@H]1CCC2[C@@H]3CCC4Nc5[nH]ncc5C[C@]4(C)C3CC[C@@]21C` (some centres undefined) is above 100 µM.
Still for that read-out and setting: with `Cc1cc(C)nc(NS(=O)(=O)c2ccc(NC(=O)c3cccc4c(Nc5ccc(S(N)(=O)=O)cc5)c5ccccc5nc34)cc2)n1` the figure was above 100 µM; with `Cc1cc(S(=O)(=O)O)c(NC(=O)C(=O)Cc2cc(=O)oc3cc(O)ccc23)cc1Cl`, above 100 µM.

A further experiment has as its system OVCAR-8 ovarian. Nature of the experiment: growth of human tumour cells (NCI), 48 h.
For the molecule `CC(C)C(=O)NS(=O)(=O)c1ccccc1`, the TGI is above 100 µM.
`COC1(OC)CC2C(=O)N(Cc3ccccc3)C1C=C2S(=O)(=O)c1ccccc1` (centres undefined) yielded a TGI of 40.5 µM.
Turning to `CC(=O)[O][Ga]([Br])[O]C(C)=O`, the GI50 was above 100 µM and the TGI was above 100 µM.
`COc1cc2c(OC)cc1CSCc1sc(C)c(c1Br)CSC2`: the TGI was above 100 µM.
On the same count and under the same terms, the figure for `CC(C)N(C(=O)C12C3C4C1(I)C1C2C3(I)C41C(=O)N(C(C)C)C(C)C)C(C)C` (centres undefined) is above 100 µM.
On the same count and under the same terms, the figure for `Cc1cccc(C)c1NC(=O)C(=O)C(C(=O)c1ccccc1-c1ccccc1)C1OC(=O)c2ccccc21` (centres undefined) is above 100 µM; for `CC1COC(C)(C)P(=O)(c2ccccc2)C1` (centres undefined) it is above 100 µM.
Same read-out and setting: with `Cc1ccc(S(=O)(=O)c2ccc(N)cc2)cc1` the figure was above 100 µM.
`CCOP(=O)(OCC)OC1C=CC2CCC1C2` (centres undefined): the TGI is above 100 µM.
Still for that read-out and setting: with `COC(=O)[C@H]1C=C[C@@H](C)n2c(=O)c3cc4ccccc4cc3c(=O)n21` the figure was above 100 µM; with `COc1cc(C=O)c(-c2cc(OC)c(OC)cc2C=O)cc1OC`, above 100 µM.
As for `COc1cc(C(=O)N2CCN(c3ncccn3)CC2)c(N)cc1OCc1ccccc1`, the GI50 was above 100 µM and the TGI was above 100 µM.
Consider `COc1c[c]([Hg][O]C(C)=O)c(OC)c(NC(=O)CC(C)=O)[c]1[Hg][O]C(C)=O`, for which the GI50 is 6.71 µM and the TGI was above 19.9 µM.
`COC(=O)/C=C1\CCC(C)O1` (centres undefined) gave a TGI above 100 µM.
Consider `O=C(/C=C/c1ccccc1Cl)NC1C=Nc2ccc([N+](=O)[O-])cc2NC1` (centres undefined), for which the TGI is above 100 µM.
The molecule `CCCO/S(=N\S(=O)(=O)c1ccccc1)c1ccccc1[N+](=O)[O-]` (centres undefined) returned a TGI above 100 µM.
Same read-out and setting: the figure for `Cc1ccc(C)c(N=C2NC(=O)C(CC(=O)Nc3ccc(Cl)cc3Cl)S2)c1` (centres undefined) is above 100 µM; for `C/C(CC(=O)Nc1cccc(Cl)c1C)=N\NC(=O)c1ccncc1` it is above 100 µM.
On the same count and under the same terms, with `Cc1cc(NS(=O)(=O)c2ccc(Nc3c4ccccc4nc4c(C(=O)N5CCN(CCO)CC5)ccc(Cl)c34)cc2)no1` the figure was above 100 µM.
Take `COc1ccc(-c2ccc(-c3ccc(C(=N)N)s3)s2)cc1`: the GI50 was 0.219 µM and the TGI turned out to be 0.5 µM.
`Cc1nc([N+](=O)[O-])cn1CC(=N)N` came in with a TGI above 100 µM.
`COC(=O)/C=C/c1c(CC=C(C)C)ncn1C` displayed a TGI above 100 µM.
`CC(C)C(=O)Nc1nc2c(ncn2C2OC(CO)C(O)C2O)c(=O)[nH]1` (centres undefined) yielded a TGI above 100 µM.
The molecule `O=S(=O)(c1ccccc1)C1CN2OC1(S(=O)(=O)c1ccccc1)CC2c1ccc(Br)cc1` (centres undefined) came in with a TGI above 100 µM.
On the same count and under the same terms, the figure for `O=Cc1ccc2c(c1-c1c(C=O)ccc3c1OCO3)OCO2` is above 100 µM.
Still for that read-out and setting: with `CC(=O)O[C@H]1CCC2[C@@H]3CCC4Nc5[nH]ncc5C[C@]4(C)C3CC[C@@]21C` (some centres undefined) the figure was above 100 µM; with `Cc1cc(C)nc(NS(=O)(=O)c2ccc(NC(=O)c3cccc4c(Nc5ccc(S(N)(=O)=O)cc5)c5ccccc5nc34)cc2)n1`, above 100 µM; with `Cc1cc(S(=O)(=O)O)c(NC(=O)C(=O)Cc2cc(=O)oc3cc(O)ccc23)cc1Cl`, above 100 µM.

In a further experiment the test system is PC-3 prostate. Nature of the experiment: growth of human tumour cells (NCI), 48 h.
`COc1cc(C(=O)N2CCN(c3ncccn3)CC2)c(N)cc1OCc1ccccc1`: the GI50 is above 100 µM and the TGI was above 100 µM.
Take `COc1ccc(-c2ccc(-c3ccc(C(=N)N)s3)s2)cc1`: the GI50 is 0.167 µM and the TGI amounted to 0.318 µM.
